Key:
[1] = (§1) The drug is tested on Z-013 corresponding to rabbit gut metagenome with ENA study accession number: PRJEB37062 and ENA sample accession number: ERS12561813 for biotransformation under anaerobic condition. The drug concentrations were measured over 9 timepoints collected between 0 and 24 hours of incubation by liquid-chromatography-coupled mass spectrometry (LC–MS); details: 2 µM
[2] = human gut metagenome, 24 h, 2 µM
[3] = human gut metagenome, 24 h, 2 µM; remark: listed apart in the source
[4] = human gut metagenome, 24 h, 2 µM; remark: listed apart in the source
[5] = as §1, with “Z-020” for “Z-013”, “ERS12561819” for “ERS12561813”; details: 2 µM
[6] = as §1, with “Z-016” for “Z-013”, “mouse” for “rabbit”, “ERS12561815” for “ERS12561813”; details: 2 µM
[7] = as §1, with “Z-014” for “Z-013”, “rat” for “rabbit”, “ERS12561814” for “ERS12561813”; details: 2 µM
[8] = as §1, with “WLS-098” for “Z-013”, “human” for “rabbit”, “ERS12561754” for “ERS12561813”; details: 2 µM
[9] = as §1, with “WLS-077” for “Z-013”, “human” for “rabbit”, “ERS12561750” for “ERS12561813”; details: 2 µM
[10] = human gut metagenome, 24 h, 2 µM; remark: listed apart in the source
[11] = human gut metagenome, 24 h, 2 µM; remark: listed apart in the source
[12] = human gut metagenome, 24 h, 2 µM; remark: listed apart in the source
[13] = human gut metagenome, 24 h, 2 µM; remark: listed apart in the source
[14] = human gut metagenome, 24 h, 2 µM; remark: listed apart in the source
[15] = as §1, with “WLS-007” for “Z-013”, “human” for “rabbit”, “ERS12561742” for “ERS12561813”; details: 2 µM
[16] = as §1, with “Z-019” for “Z-013”, “rat” for “rabbit”, “ERS12561818” for “ERS12561813”; details: 2 µM
[17] = as §1, with “Z-030” for “Z-013”, “mouse” for “rabbit”, “ERS12561829” for “ERS12561813”; details: 2 µM
[18] = as §1, with “Z-011” for “Z-013”, “mouse” for “rabbit”, “ERS12561811” for “ERS12561813”; details: 2 µM
[19] = as §1, with “Z-028” for “Z-013”, “mouse” for “rabbit”, “ERS12561827” for “ERS12561813”; details: 2 µM
[20] = as §1, with “Z-023” for “Z-013”, “to” for “to rabbit gut”, “ERS12561822” for “ERS12561813”; details: 2 µM
Further: call rule not given here.

SMILES	Bacterial Biotransformation [1]	Bacterial Biotransformation [2]	Bacterial Biotransformation [3]	Bacterial Biotransformation [4]	Bacterial Biotransformation [5]	Bacterial Biotransformation [6]	Bacterial Biotransformation [7]	Bacterial Biotransformation [8]	Bacterial Biotransformation [9]	Bacterial Biotransformation [10]	Bacterial Biotransformation [11]	Bacterial Biotransformation [12]	Bacterial Biotransformation [13]	Bacterial Biotransformation [14]	Bacterial Biotransformation [15]	Bacterial Biotransformation [16]	Bacterial Biotransformation [17]	Bacterial Biotransformation [18]	Bacterial Biotransformation [19]	Bacterial Biotransformation [20]
CCC1(c2ccc(N)cc2)CCC(=O)NC1=O (stereo not given) [AMINOGLUTETHIMIDE]	Compound NOT metabolized	Compound NOT metabolized	Compound NOT metabolized	Compound NOT metabolized	Compound NOT metabolized	Compound NOT metabolized	Compound NOT metabolized	Compound NOT metabolized	Compound NOT metabolized	Compound NOT metabolized	Compound NOT metabolized	Compound NOT metabolized	Compound NOT metabolized	Compound NOT metabolized	Compound NOT metabolized	Compound NOT metabolized				
CN1CCc2cccc3c2[C@H]1Cc1ccc(O)c(O)c1-3 [APOMORPHINE]	Compound metabolized	Compound NOT metabolized	Compound NOT metabolized	Compound NOT metabolized		Compound NOT metabolized		Compound NOT metabolized	Compound NOT metabolized	Compound NOT metabolized	Compound NOT metabolized	Compound NOT metabolized	Compound NOT metabolized	Compound NOT metabolized	Compound NOT metabolized		Compound NOT metabolized			
OC(CCN1CCCCC1)(c1ccccc1)C1CC2C=CC1C2 (stereo not given) [BIPERIDEN]		Compound NOT metabolized	Compound metabolized	Compound NOT metabolized				Compound metabolized	Compound NOT metabolized	Compound NOT metabolized	Compound NOT metabolized	Compound NOT metabolized	Compound NOT metabolized	Compound metabolized	Compound NOT metabolized					
CN1C(=O)CCS(=O)(=O)C1c1ccc(Cl)cc1 (stereo not given) [CHLORMEZANONE]	Compound NOT metabolized	Compound NOT metabolized	Compound NOT metabolized	Compound NOT metabolized	Compound NOT metabolized	Compound NOT metabolized	Compound NOT metabolized	Compound NOT metabolized	Compound NOT metabolized	Compound NOT metabolized	Compound NOT metabolized	Compound NOT metabolized	Compound NOT metabolized	Compound NOT metabolized	Compound NOT metabolized	Compound NOT metabolized		Compound NOT metabolized	Compound NOT metabolized	Compound NOT metabolized
CC(=O)O[C@]1(C(C)=O)CC[C@H]2[C@@H]3C=C(Cl)C4=CC(=O)[C@@H]5C[C@@H]5[C@]4(C)[C@H]3CC[C@@]21C [CYPROTERONE ACETATE]		Compound metabolized	Compound metabolized	Compound metabolized				Compound metabolized	Compound metabolized	Compound metabolized	Compound metabolized	Compound metabolized	Compound metabolized	Compound metabolized	Compound metabolized			Compound metabolized		Compound metabolized
CN1C[C@H](C(=O)N[C@]2(C)O[C@@]3(O)[C@@H]4CCCN4C(=O)[C@H](Cc4ccccc4)N3C2=O)C=C2c3cccc4[nH]cc(c34)C[C@H]21.CN1C[C@H](C(=O)N[C@]2(C)O[C@@]3(O)[C@@H]4CCCN4C(=O)[C@H](Cc4ccccc4)N3C2=O)C=C2c3cccc4[nH]cc(c34)C[C@H]21.O=C(O)C(O)C(O)C(=O)O [ERGOTAMINE TARTRATE]		Compound metabolized	Compound metabolized	Compound metabolized				Compound metabolized	Compound metabolized	Compound metabolized	Compound metabolized	Compound metabolized	Compound NOT metabolized	Compound metabolized	Compound metabolized					
COC(=O)C1=C(C)NC(C)=C(C(=O)OC(C)C)C1c1cccc2nonc12 (stereo not given) [ISRADIPINE]		Compound metabolized	Compound metabolized	Compound metabolized				Compound metabolized	Compound NOT metabolized	Compound metabolized	Compound metabolized	Compound metabolized	Compound metabolized	Compound metabolized	Compound metabolized					
CNC(=C[N+](=O)[O-])NCCSCc1csc(CN(C)C)n1 [NIZATIDINE]	Compound NOT metabolized	Compound NOT metabolized	Compound metabolized	Compound metabolized	Compound NOT metabolized	Compound NOT metabolized	Compound NOT metabolized	Compound metabolized	Compound NOT metabolized	Compound NOT metabolized	Compound metabolized	Compound NOT metabolized	Compound NOT metabolized	Compound metabolized	Compound NOT metabolized		Compound metabolized	Compound metabolized	Compound NOT metabolized	Compound NOT metabolized
CN(C(=O)CN(CCO)CC(=O)N(C)C(C)(C)Cc1ccccc1)C(C)(C)Cc1ccccc1 [OXETHAZAINE]		Compound metabolized	Compound metabolized	Compound metabolized				Compound metabolized	Compound metabolized	Compound metabolized	Compound metabolized	Compound metabolized	Compound metabolized	Compound metabolized	Compound NOT metabolized					
Cc1nc2n(c(=O)c1CCN1CCC(c3noc4cc(F)ccc34)CC1)CCCC2O (stereo not given) [PALIPERIDONE]	Compound NOT metabolized	Compound metabolized	Compound metabolized	Compound metabolized	Compound NOT metabolized	Compound NOT metabolized	Compound NOT metabolized	Compound metabolized	Compound metabolized	Compound metabolized	Compound metabolized	Compound metabolized	Compound metabolized	Compound metabolized	Compound metabolized		Compound metabolized	Compound NOT metabolized		Compound metabolized
Cc1ccc(/C(=C\CN2CCCC2)c2ccccn2)cc1 [TRIPROLIDINE]	Compound NOT metabolized	Compound NOT metabolized	Compound NOT metabolized	Compound NOT metabolized		Compound NOT metabolized	Compound NOT metabolized	Compound NOT metabolized	Compound NOT metabolized	Compound NOT metabolized	Compound NOT metabolized	Compound NOT metabolized	Compound NOT metabolized	Compound metabolized	Compound NOT metabolized			Compound NOT metabolized	Compound NOT metabolized	Compound NOT metabolized
